Experimental findings from patent publication US11135252B2, “Probiotic therapies for developmental disorders and other neurological disorders” (Baylor College of Medicine, priority 2016, dated 2021) are described below.

“Also recorded” adds a separate entry of the source.

For one assay, the system named is VTA DA neurons. As to the kind of experiment: Social interaction-induced LTP (AMPAR/NMDAR ratio) in VTA DA neurons of MHFD offspring. In kind it is in vivo, mice. Particulars: for stranger interaction-evoked LTP in the VTA (AMPAR/NMDAR ratio): bacteria in drinking water, 24 hours after 10 min reciprocal interaction. The source says:
Brain regions responding to naturally rewarding stimuli, including the ventral tegmental area (VTA) and the nucleus accumbens (NAc), are crucially involved in social behaviors (Dolen et al., 2013; Gunaydin et al., 2014; Huang and Hessler, 2008). In addition, oxytocin-expressing neurons in the PVN project to the VTA (Melis et al., 2007). Oxytocin activates VTA neurons in both mice and humans, influencing the processing of socially relevant cues (Gregory et al., 2015; Groppe et al., 2013; Tang et al., 2014) and oxytocin receptor blockade in the VTA prevents social attachment in rodents (Pedersen et al., 1994). Given that social stimulation can be particularly rewarding and triggers synaptic potentiation in VTA DA neurons of birds (Huang and Hessler, 2008), it was considered whether direct social interaction evokes long-term potentiation (LTP) of synaptic inputs to VTA DA neurons (FIGS. 20A-20C). To this end, AMPAR/NMDAR ratios were recorded of glutamatergic excitatory postsynaptic currents (EPSCs) in MRD and MHFD offspring 24 hours following a 10 min reciprocal interaction with either a stranger or a familiar mouse (FIG. 5A). In control MRD mice, social interaction with a stranger, but not a familiar mouse, triggered LTP in VTA DA neurons, as determined by an increase in AMPAR/NMDAR ratios (FIGS. 5B and 5D).
Recordings were performed as previously described (Ungless et al., 2001; Zhu et al., 2011) and the investigators were kept blind to treatment conditions. Briefly, mice were anesthetized with a mixture of ketamine (100 mg/kg), xylazine (10 mg/kg) and acepromazine (3 mg/kg). Horizontal slices (225-300 μm thick) containing the VTA were cut from the brains of C57BL/6J mice. Mice were transcardially perfused with an ice-cold, oxygenated solution containing (in mM) NaCl, 87; NaHCO3, 25; KCl, 2.5; NaH2PO4, 1.25; MgCl2, 7; CaCl2, 0.5; dextrose, 25; sucrose, 75. […] Data were obtained with a MultiClamp 700B amplifier, digitized at 20 kHz with a Digidata 1440A, recorded by Clampex 10 and analyzed with Clampfit 10 software (Molecular Devices). […] After establishing a gigaohm seal (>2 GΩ) and recording stable spontaneous firing in cell-attached, voltage clamp mode (−70 mV holding potential), cell phenotype was determined by measuring the width of the action potential and the presence of an Ih current. AMPAR/NMDAR ratios were calculated as previously described (Ungless et al., 2001). […]

In another assay the test system is MHFD offspring. As to the kind of experiment: Three-chamber social test in MHFD offspring. The assay is classed as in vivo, mice. As to conditions: for preference for social novelty / sociability: intranasal oxytocin approximately 200 μg/kg, 30 min prior; for preference for social novelty (time interacting with novel vs familiar mouse) / sociability (time interacting with mouse vs empty cage): in drinking water from weaning for 4 weeks, 1×10^8 organisms/mouse/day. The protocol:
Crawley's three-chamber test for sociability and preference for social novelty was performed as described (Silverman et al., 2010). In brief, the mouse first experienced a 10-minute period of habituation during which it was allowed to freely explore a 60×40×23 cm Plexiglass arena divided into three equally sized, interconnected chambers (Left, Center, Right). Sociability was measured during a second ten-minute period in which the subject could interact either with an empty wire cup (Empty) or a wire cup containing an age and sex-matched stranger conspecific (Mouse 1). Time spent interacting (sniffing, crawling upon) with either the empty cup or the stranger mouse contained in the other cup as well as time spent in each chamber was recorded using the AnyMaze software, by independent observers. Empty cup placement in the Left or Right chamber during the Sociability period was counterbalanced between trials. Finally, preference for social novelty was assayed by introducing a second stranger mouse (Mouse 2) into the previously the empty wire cup. Time spent in each chamber as well as time spent interacting with either Mouse 1 or Mouse 2 was recorded using the automated AnyMaze software by independent observers. Lactobacillus reuteri MM4-1A (ATCC-PTA-6475) and Lactobacillus johnsonii (ATCC 33200) were cultured anaerobically in MRS broth in a 90% N2, 5% CO2, 5% H2 environment. L. reuteri was heat-killed by keeping the bacteria at 80° C. for 20 minutes (Wang et al., 2010). Bacterial viability was assessed by plating and the efficacy of the heat-kill procedure was confirmed by the absence of colony growth following plating. Cultures were centrifuged, washed, and resuspended in anaerobic solution (PBS) and frozen at −80° C. until use. PBS, live or heat-killed L. reuteri were added to the drinking water, which was changed daily to minimize dosage variability. Whereas the experimental group received live bacteria, one control group received identically prepared cultures of heat-killed bacteria. A second group of control mice received water treated with PBS alone. Live and heat-killed L. reuteri were supplied at a dosage of 1×10^8 organisms/mouse/day continuously in drinking water. Mice consumed the treated water ad libitum over the treatment period. The treated drinking water for each group was replaced daily two hours prior to the onset of the dark cycle to minimize variation in microbial exposure. Behavioral assays were initiated after 4-weeks of L. reuteri or control treatment. The protocol of the L. johnsonii preparation and administration matched the L. reuteri protocol. Fecal samples for sequencing and tissue used in the immunofluorescence studies were collected at the end of the treatment. Oxytocin was obtained from Tocris Bioscience (product 1910) and solubilized in 10% dimethyl sulfoxide (DMSO) in PBS. 10% DMSO in PBS was used as the vehicle control. Mice received oxytocin intranasally (at approximately 200 μg/kg) thirty minutes prior to behavior. 1.25 μl of oxytocin or vehicle solution was injected into each nostril from P10 pipette. Oxytocin dose was selected according to dosages reported to rescue social behavior in genetic models phenotypically expressing ASD-like behaviors (Penagarikano et al., 2015).

In the case of `CC[C@H](C)[C@@H]1NC(=O)[C@H](Cc2ccc(O)cc2)NC(=O)[C@@H](N)CSSC[C@@H](C(=O)N2CCC[C@H]2C(=O)N[C@@H](CC(C)C)C(=O)NCC(N)=O)NC(=O)[C@H](CC(N)=O)NC(=O)[C@H](CCC(N)=O)NC1=O` [oxytocin], the “social interaction-induced LTP in the VTA” value with VTA DA neurons (intranasal oxytocin alone, without social interaction) is “failed to rescue”; with VTA DA neurons (intranasal oxytocin approximately 200 μg/kg combined with stranger social interaction) it was “restored LTP; also recorded: rescued LTP”. In addition, the “preference for social novelty” value with MHFD offspring was “improved”; with MHFD offspring (listed as Oxytocin), “restored”. Moreover, the values for the sociability entry in the assay on MHFD offspring and in the assay on MHFD offspring (listed as Oxytocin) were “improved sociability” and “restored”, respectively.

Regarding “Lactobacillus reuteri MM4-1A (ATCC-PTA-6475) [L. reuteri]”, the “stranger interaction-evoked LTP in the VTA (AMPAR/NMDAR ratio)” value in the assay with VTA DA neurons is “rescued stranger interaction-induced LTP”. In addition, the “stranger interaction-evoked LTP in the VTA (AMPAR/NMDAR ratio)” value in the assay on VTA DA neurons (listed as live L. reuteri) was “restored stranger interaction-evoked LTP”. Further, in the assay with MHFD offspring, the “preference for social novelty (time interacting with novel vs familiar mouse)” value is given as “significantly improved” and the “sociability (time interacting with mouse vs empty cage)” value was “significantly improved sociability”. In the assay on MHFD offspring (listed as live L. reuteri), the “preference for social novelty (time interacting with novel vs familiar mouse)” value is “rescued” and the “sociability (time interacting with mouse vs empty cage)” value is on record as “rescued sociability”. In the assay on MHFD offspring (in drinking water, 4 weeks), the “preference for social novelty (chamber containing Mouse 2, FIG. 16B)” value was “improved” and the “sociability (chamber containing a mouse, FIG. 16A)” value is given as “improved MHFD offspring sociability”.
